# Test results taken from US12600728B2, “Interleukin-17 inhibitors” (priority 2020, dated 2026).
# Biological target: biotinylated human IL-17A / AF647-labeled human IL-17RA (Homo sapiens, UniProt Q16552)
# Assay: Human IL-17A×IL-17RA TR-FRET assay
# Format: binding
# Conditions: IL17AA FRET/ IL17Rawt IC50, TR-FRET, 5 nM IL-17A, 30 nM IL-17RA
# Method: Human IL-17A×IL-17RA TR-FRET Assay
# Each compound concentration is tested in duplicate.
# The final total assay volume is 10 μL.
# Each plate contains test compounds in columns 1-22 and controls in columns 23 and 24. The neutral control (NC) contains all the assay components, but DMSO instead of test compound. […] The fluorescence values for emission at 615 nm and 665 nm are loaded to the evaluation software Helios.
# From the activity data at each compound concentration, the IC50 values are obtained using the 4-parameter logistic function (“Hill-slope model”) of Helios.
# Sequence of biotinylated human IL-17A / AF647-labeled human IL-17RA (Q16552 24-155): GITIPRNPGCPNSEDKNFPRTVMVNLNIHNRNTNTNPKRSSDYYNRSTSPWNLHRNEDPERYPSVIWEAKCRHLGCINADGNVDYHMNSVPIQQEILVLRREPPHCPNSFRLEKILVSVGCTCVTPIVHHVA
row,IC50,SMILES
1,1.47 µM,"Cc1cc[n+]([O-])cc1-c1ccc(NC(=O)[C@@H](NC(=O)c2ccnn2C)C2CCCCC2)cc1F [Example 168, (S)-3-(4-(2-cyclohexyl-2-(1-methyl-1H-pyrazole-5-carboxamido)acetamido)-2-fluorophenyl)-4-methylpyridine 1-oxide]"
2,2.11 µM,"Cc1c(-c2ccc(NC(=O)[C@@H](NC(=O)c3ccnn3C)C3CCC(F)(F)CC3)cc2)cc(Cl)c[n+]1[O-] [Example 177, (S)-5-chloro-3-(4-(2-(4,4-difluorocyclohexyl)-2-(1-methyl-1H-pyrazole-5-carboxamido)acetamido)phenyl)-2-methylpyridine 1-oxide]"

row,SMILES,IC50
1,"CCn1nccc1C(=O)NC(C(=O)Nc1ccc(-c2c(C(F)(F)F)cc[n+]([O-])c2C)cc1)C1CC2CC2C1 (single isomer, unassigned) [Example 154]",6.3 µM

# Same assay, conditions: IL17AA FRET/ IL17Rawt IC50, TR-FRET, biotinylated human IL-17A 5 nM, AF647-labeled human IL-17RA 30 nM
row,SMILES,IC50
1,"Cc1c(-c2ccc(NC(=O)C(NC(=O)c3ccnn3C)C3CC4C(C3)C4(F)F)cc2)c(Cl)cc[n+]1[O-] (single isomer, unassigned) [Example 54b]",10.9 µM
2,"Cc1c[n+]([O-])ccc1-c1ccc(NC(=O)[C@@H](NC(=O)c2ccnn2C)C2CCCCC2)cc1 [Example 111, (S)-4-(4-(2-cyclohexyl-2-(1-methyl-1H-pyrazole-5-carboxamido)acetamido)phenyl)-3-methylpyridine I-oxide]",4.78 µM

# Same assay, conditions: TR-FRET, 5 nM IL-17A, 30 nM IL-17RA; read-out: IL17AA FRET/ IL17Rawt IC50
row,SMILES,IC50
1,"Cc1cc[n+]([O-])c(C)c1-c1ccc(NC(=O)C(NC(=O)c2ccc3n2CCN(C)C3)C2CC3CC3C2)cc1 (single isomer, unassigned) [Example 150]",0.464 µM
2,"Cc1cc[n+]([O-])c(C)c1-c1ccc(NC(=O)[C@@H](NC(=O)c2ccc3n2CCN(C)C3)C2CCCC2)cc1 [Example 153, (S)-3-(4-(2-cyclopentyl-2-(2-methyl-1,2,3,4-tetrahydropyrrolo[1,2-a]pyrazine-6-carboxamido)acetamido)phenyl)-2,4-dimethylpyridine 1-oxide]",0.798 µM
3,"Cc1c(-c2ccc(NC(=O)[C@@H](NC(=O)c3ccc4n3CCN(C)C4)[C@H]3CCCC(F)(F)C3)cc2)c(C(F)(F)F)cc[n+]1[O-] [Example 166, 3-(4-((S)-2-((S)-3,3-difluorocyclohexyl)-2-(2-methyl-1,2,3,4-tetrahydropyrrolo[1,2-a]pyrazine-6-carboxamido)acetamido)phenyl)-2-methyl-4-(trifluoromethyl)pyridine 1-oxide]",0.358 µM

# The remaining lines, values ahead:
row,IC50,SMILES
1,0.391 µM,"Cc1cc[n+]([O-])c(C)c1-c1ccc(NC(=O)[C@@H](NC(=O)c2ccc3n2CCN(C)C3)[C@H]2CCCC(F)(F)C2)cc1 [Example 152, 3-(4-((S)-2-((S)-3,3-difluorocyclohexyl)-2-(2-methyl-1,2,3,4-tetrahydropyrrolo[1,2-a]pyrazine-6-carboxamido)acetamido)phenyl)-2,4-dimethylpyridine 1-oxide]"
2,1.15 µM,"Cc1cc[n+]([O-])c(C)c1-c1ccc(NC(=O)[C@@H](NC(=O)c2conc2CO)C2CCC(F)(F)CC2)cc1 [Example 155, (S)-3-(4-(2-(4,4-difluorocyclohexyl)-2-(3-(hydroxymethyl)isoxazole-4-carboxamido)acetamido)phenyl)-2,4-dimethylpyridine 1-oxide]"
3,0.301 µM,"Cc1c(-c2ccc(NC(=O)C(NC(=O)c3ccc4n3CCN(C)C4)[C@@H]3C[C@@H]4[C@H](C3)C4(F)F)cc2)c(Cl)cc[n+]1[O-] (stereo partly drawn) [Example 165, 4-chloro-3-(4-(2-((1R,3s,5S)-6,6-difluorobicyclo[3.1.0]hexan-3-yl)-2-(2-methyl-1,2,3,4-tetrahydropyrrolo[1,2-a]pyrazine-6-carboxamido)acetamido)phenyl)-2-methylpyridine 1-oxide]"
4,1.61 µM,"COCc1nocc1C(=O)N[C@H](C(=O)Nc1ccc(-c2cc(Cl)c[n+]([O-])c2C)cc1)C1CCC(F)(F)CC1 [Example 176, (S)-5-chloro-3-(4-(2-(4,4-difluorocyclohexyl)-2-(3-(methoxymethyl)isoxazole-4-carboxamido)acetamido)phenyl)-2-methylpyridine 1-oxide]"
5,0.316 µM,"Cc1cc[n+]([O-])c(C)c1-c1ccc(NC(=O)[C@@H](NC(=O)c2ccc3n2CCNC3)[C@H]2CCCC(F)(F)C2)cc1 [Example 208, 3-(4-((S)-2-((S)-3,3-difluorocyclohexyl)-2-(1,2,3,4-tetrahydropyrrolo[1,2-a]pyrazine-6-carboxamido)acetamido)phenyl)-2,4-dimethylpyridine 1-oxide]"
6,0.478 µM,"CC(=O)N1CCn2c(ccc2C(=O)N[C@H](C(=O)Nc2ccc(-c3c(C(F)(F)F)cc[n+]([O-])c3C)cc2)C2CCC(F)(F)CC2)C1 [Example 210, (S)-3-(4-(2-(2-acetyl-1,2,3,4-tetrahydropyrrolo[1,2-a]pyrazine-6-carboxamido)-2-(4,4-difluorocyclohexyl)acetamido)phenyl)-2-methyl-4-(trifluoromethyl)pyridine 1-oxide]"

# Same assay, conditions: TR-FRET, biotinylated human IL-17A 5 nM, AF647-labeled human IL-17RA 30 nM; read-out: IL17AA FRET/ IL17Rawt IC50
row,SMILES,IC50
1,"Cc1nc(C(F)(F)F)c(C(=O)N[C@H](C(=O)Nc2ccc(-c3c(C(F)(F)F)cc[n+]([O-])c3C)cc2)C2CCCC2)s1 [Example 73, (S)-3-(4-(2-cyclopentyl-2-(2-methyl-4-(trifluoromethyl)thiazole-5-carboxamido)acetamido)phenyl)-2-methyl-4-(trifluoromethyl)pyridine 1-oxide]",1.41 µM
2,"Cc1cc[n+]([O-])c(C)c1-c1ccc(NC(=O)[C@@H](NC(=O)c2conc2CN(C)C)C2CCCCC2)cc1 [Example 80, (S)-3-(4-(2-cyclohexyl-2-(3-((dimethylamino)methyl)isoxazole-4-carboxamido)acetamido)phenyl)-2,4-dimethylpyridine 1-oxide]",4.45 µM
3,"Cc1cc[n+]([O-])cc1-c1ccc(NC(=O)[C@@H](NC(=O)c2ccnn2C)C2CCCCC2)cc1 [Example 81, (S)-3-(4-(2-cyclohexyl-2-(1-methyl-1H-pyrazole-5-carboxamido)acetamido)phenyl)-4-methylpyridine 1-oxide]",3.74 µM
4,"Cc1c[n+]([O-])cc(C)c1-c1ccc(NC(=O)[C@@H](NC(=O)c2ccnn2C2CC2)C2CCCCC2)cc1 [Example 98, (S)-4-(4-(2-cyclohexyl-2-(1-cyclopropyl-1H-pyrazole-5-carboxamido)acetamido)phenyl)-3,5-dimethylpyridine 1-oxide]",1.4 µM
5,"Cc1cc[n+]([O-])c(F)c1-c1ccc(NC(=O)[C@@H](NC(=O)c2ccnn2C)C2CCCCC2)cc1 [Example 114, (S)-3-(4-(2-cyclohexyl-2-(1-methyl-1H-pyrazole-5-carboxamido)acetamido)phenyl)-2-fluoro-4-methylpyridine 1-oxide]",2.79 µM
6,"Cc1cc[n+]([O-])c(C)c1-c1ccc(NC(=O)[C@@H](NC(=O)c2ccc3n2CCN(C2CC2)C3)C2CCCCC2)cc1 [Example 131, (S)-3-(4-(2-cyclohexyl-2-(2-cyclopropyl-1,2,3,4-tetrahydropyrrolo[1,2-a]pyrazine-6-carboxamido)acetamido)phenyl)-2,4-dimethylpyridine 1-oxide]",0.102 µM
7,"Cc1cc[n+]([O-])c(C)c1-c1ccc(NC(=O)[C@@H](NC(=O)c2ccc3n2CCN(C2COC2)C3)[C@H]2CC[C@H](C(F)(F)F)CC2)cc1 [Example 132, 2,4-dimethyl-3-(4-((S)-2-(2-(oxetan-3-yl)-1,2,3,4-tetrahydropyrrolo[1,2-a]pyrazine-6-carboxamido)-2-((1r,4S)-4-(trifluoromethyl)cyclohexyl)acetamido)phenyl)pyridine 1-oxide]",0.866 µM
8,"COCCN1CCn2c(ccc2C(=O)N[C@H](C(=O)Nc2ccc(-c3c(C)cc[n+]([O-])c3C)cc2)C2CCCCC2)C1 [Example 135, (S)-3-(4-(2-cyclohexyl-2-(2-(2-methoxyethyl)-1,2,3,4-tetrahydropyrrolo[1,2-a]pyrazine-6-carboxamido)acetamido)phenyl)-2,4-dimethylpyridine 1-oxide]",0.451 µM

# Now from value to compound:
row,IC50,SMILES
1,0.382 µM,"Cc1c(-c2ccc(NC(=O)[C@@H](NC(=O)c3ccc4n3CCN(C)C4)C3CCC(F)CC3)cc2)c(Cl)cc[n+]1[O-] (mixture of isomers) [Example 129, 4-chloro-3-(4-((2S)-2-(4-fluorocyclohexyl)-2-(2-methyl-1,2,3,4-tetrahydropyrrolo[1,2-a]pyrazine-6-carboxamido)acetamido)phenyl)-2-methylpyridine 1-oxide]"
2,30.4 µM,"CCn1nccc1C(=O)N[C@@H](C(=O)Nc1ccc(-c2c(Cl)cc[n+]([O-])c2C)cc1)C1CCC(F)(F)CC1 (single isomer, unassigned) [Example 13b]"
3,0.68 µM,"CCn1nccc1C(=O)NC(C(=O)Nc1ccc(-c2c(Cl)cc[n+]([O-])c2C)cc1)C1CCC(C(F)(F)F)CC1 [Example 20, 4-chloro-3-(4-((S)-2-(1-ethyl-1H-pyrazole-5-carboxamido)-2-((1r,4S)-4-(trifluoromethyl)cyclohexyl)acetamido)phenyl)-2-methylpyridine 1-oxi]"
4,78.9 µM,"Cc1cc[n+]([O-])c(C)c1-c1ccc(NC(=O)C(NC(=O)c2ccnn2C)C2(C)CCCCC2)cc1 (stereo not drawn) [Example 43, 2,4-dimethyl-3-(4-(2-(1-methyl-1H-pyrazole-5-carboxamido)-2-(1-methylcyclohexyl)acetamido)phenyl)pyridine 1-oxide]"
5,20.9 µM,"Cc1c(-c2ccc(NC(=O)[C@@H](NC(=O)c3ccnn3C)C3CCCCC3)c(Cl)c2)c(Cl)cc[n+]1[O-] [Example 85, (S)-4-chloro-3-(3-chloro-4-(2-cyclohexyl-2-(1-methyl-1H-pyrazole-5-carboxamido)acetamido)phenyl)-2-methylpyridine 1-oxide]"
